Results published in patent US9949947B2, “Delphinidin for combating melanoma cells” (Sapiotec GmbH, priority 2012, dated 2018).

Experiments:
[1] = system: human melanoma cell line A-375; test: Cell viability test, WST-1 assay (Example 7); format: cell-based; conditions: A-375, 24 hours; 10-3000 μg/ml delphinidin-SBE-β-CD or 15-120 μM delphinidin Cl; low and higher cell confluence (FIGS. 3a, 3b)
[2] = Stability in aqueous 0.9% NaCl solution at 37° C., delphinidin content by HPLC (Example 5); format: physicochemical; conditions: starting concentration 1.584 mg/ml (complex) or 0.0216 mg/ml (delphinidin)
Method: To determine the delphinidin chloride content in the delphinidin-containing solutions, a reversed-phase HPLC method was used similar to the one already described above. The following reagents were used in this case: […] The solutions were prepared at room temperature and subsequently stored in the dark at 37° C. in closed vials. […] The table below gives the content determined as a percentage of the starting concentration stated above. The determination of the delphinidin content in the samples was calculated with the aid of the Agilent ChemStation software using the calibration with the external standard described.

human fibroblasts = test: Cytotoxicity, cell vitality by ATP luminescence assay, fibroblasts (Example 12); conditions: 0.1-100 μM (0.1 μM; 3.2 μM; 100 μM), FIG. 19
Method: The cells used were primary, even isolated fibroblasts and microvascular endothelial cells from human donor skin.
To isolate the fibroblasts, the tissue cell structure was dissolved by means of a one-hour incubation with trypsin-EDTA solution. To stop the cell detachment reaction, stop medium was added to the skin. The piece of skin was then swirled twice in PBS resulting in a suspension of fibroblasts. The fibroblasts obtained were centrifuged at 4° C. for 5 min at 100 revolutions per minute and were used after quantification.
In the experiments according to Example 12, the effect of the substances investigated on the vitality of human fibroblasts and endothelial cells was investigated using the ATP luminescence assay, which is known to those skilled in the art and is briefly summarized below for the sake of completeness.
By the inhibition of endogenous ATPases, the ATP content liberated by lysis can thus be used as a measure for the number of vital cells. For the quantification, the liberated ATP is coupled to a reaction catalyzed by the enzyme luciferase, in which the ATP-dependent oxidation of the substrate luciferin to oxyluciferin, carbon dioxide, AMP and inorganic phosphate takes place in the presence of Mg^2+, with release of light. […] This is measured in RLU (relative light units), an independent unit which reflects the amount of ATP in the sample. […]

[3] = system: human melanoma cell line A-375; test: Induction of apoptosis, sub-G1 peak method (Example 6); format: cell-based; conditions: A-375, 24 hours; 10-3000 μg/ml delphinidin-SBE-β-CD or 15-120 μM delphinidin Cl; low and higher cell confluence (FIGS. 1, 2a, 2b)
A-375 cells [4] = test: Microscopic analysis of cell morphology after 24 hours of treatment; conditions: A-375, after 24 hours of treatment, high concentrations (FIG. 4)
[5] = system: human dermal microvascular endothelial cells; test: Cytotoxicity, cell vitality by ATP luminescence assay, endothelial cells (Example 12); format: cell-based; conditions: 0.1-100 μM (0.1 μM; 3.2 μM; 100 μM), Day 1-Day 4, FIG. 18
Source text: The human dermal microvascular endothelial cells were obtained by the standard method known to those skilled in the art of Hewett and Murray (1993) [Hewett P. W. and Murray J. C. (1993) Immunomagnetic purification of human microvessel endothelial cells using Dynabeads coated monoclonal antibodies to PECAM-1. Eur J Cell Biol 62: 451-454; Hewett P. W. & Murray J. C. (1993) Human microvessel endothelial cells: Isolation, culture and characterization. In Vitro Cell Biol: 823-830].

[6] = Solubility of delphinidin chloride in aqueous cyclodextrin solutions (Example 1); conditions: pure water, cyclodextrin concentration 0; excess delphinidin chloride, stirred at 30° C. for 20 h in the dark, filtered 0.22 μm
cell line A-375 = test: Induction of apoptosis in combination with TRAIL, sub-G1 peak method (Example 9); format: cell-based, human; conditions: A-375, 24 hours; complex partner as control
Method: The same cell line and method was used in the experiments as in the preceding section II. […] The experiments were carried out in parallel both at low (low cell confluence) and higher cell density (higher cell confluence), of which the results processed graphically are shown in FIGS. 11a (low cell confluence) and 11b (higher cell confluence).

A-375 cells [7] = test: Real-time cell analysis (RTCA) in combination with TRAIL, xCELLigence system (Example 11); format: cell-based, human; conditions: A-375, high cell confluence; TRAIL 0.02 μg/ml, SBE-β-CD 30 or 1000 μg/ml (FIGS. 16 and 17)
A-375 cells [8] = test: Cell viability test in combination with TRAIL (Example 10); format: cell-based, human; conditions: A-375, 24 hours; complex partner as control

Compound | Effect on cell viability (loss of vital cells) [1] | Delphinidin content as a percentage of the starting concentration ([2]; 0 h) [%] | Delphinidin content as a percentage of the starting concentration ([2]; 1 h, 37° C. in the dark) [%] | Delphinidin content as a percentage of the starting concentration ([2]; 2 h, 37° C. in the dark) [%] | Delphinidin content as a percentage of the starting concentration ([2]; 3 h, 37° C. in the dark) [%] | Delphinidin content as a percentage of the starting concentration ([2]; 4 h, 37° C. in the dark) [%] | Cytotoxic effects on cell vitality (human fibroblasts) | Induction of apoptosis (sub-G1 peak) [3] | Morphology of the cells under microscopic analysis (A-375 cells [4]) | Cytotoxic effects on cell vitality [5] | Delphinidin chloride, solubility achievable [6] [µg/mL] | Induction of apoptosis (sub-G1 peak) (cell line A-375) | Intensification of TRAIL sensitivity (A-375 cells [7]) | Cell vitality (A-375 cells [8])
Oc1cc(O)c2cc(O)c(-c3cc(O)c(O)c(O)c3)[o+]c2c1.[Cl-] [delphinidin Cl, delphinidin chloride] | loss of vital cells with increasing dose | 100 | 8.3 | 6.5 | 5.6 | 5.1 | no significant cytotoxic effects | significant dose-dependent induction of apoptosis | globular and/or detached | no significant cytotoxic effects | 70 | – | – | –
sulfobutyl ether β-cyclodextrin [SBE-β-CD] | no effect | – | – | – | – | – | – | no effect | – | – | – | at control level | No intensification of TRAIL sensitivity | at control level
